According to patent publication US8420657B2 (Novartis AG, priority 2008, dated 2013):

Columns and labels:
[1] = target: T1, GST-JAK2(808-1132) (Homo sapiens, UniProt O60674); assay: JAK2 kinase assay (Caliper mobility shift, LabChip 3000); format: biochemical
T1 construct: GST-JAK2(808-1132); purchased Invitrogen (Carlsbad, USA) #4288
Method in brief: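 Eight-point compound series (final 10–0.003 μM) tested on purchased GST-JAK2 kinase domain (808-1132). Peptide FITC-JAK3tide plus ATP reacted 60 min, 30 °C, then quenched with EDTA; turnover from charge-based separation of substrate and product.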

[2] = test system: JAK1/JAK2-dependent nuclear translocation of STAT1-GFP in HT1080 fibrosarcoma cells; assay: STAT1 nuclear translocation assay (Cellomics), IFN-γ stimulated HT1080 STAT1-GFP cells; format: cell-based; conditions: Homo sapiens, HT-1080, STAT1 translocation pathway
From the text: The medium-throughput (96-well format) cellular automated fluorescence microscopy Cellomics assay can be routinely used to assess the functional activation of Janus Kinases (JAKs), based on the nuclear translocation of their substrate, Signal Transducer and Activator of Transcription (STAT). Nuclear translocation can be monitored either in HT1080 fibrosarcoma cells stably transfected with STAT1 fused to Green Fluorescence Protein (GFP) or in U-2 OS osteosarcoma cells stably transfected with STAT5 fused to Green Fluorescence Protein (GFP). Stimulation of HT1080 cells with interferon-γ (IFN-γ) results in JAK1/JAK2-dependent nuclear translocation of STAT1-GFP, whereas stimulation of U-2 OS cells with recombinant human erythropoietin (rhEpo) results in JAK2-dependent nuclear translocation of STAT5-GFP, both of which can be quantified using the Cellomics Cyto/NucTrans software package. This assay may be used to provide an assessment of the nuclear-cytoplasmic differential (NCD) of STAT-GFP using Hoechst dye to define the boundaries of the nucleus.
HT1080 fibrosarcoma cells may be obtained from ATCC and can be cultured in alpha Modified Eagle Medium with 10% FCS. Cells can be transfected with pEGFP-N2 STAT1 using Fugene 6 Transfection Reagent following the manufacturers' protocol. 24 hours after transfection the medium can be replaced and selected in 1 mg/ml Geneticin.
Compounds can be dissolved in DMSO to a final stock concentration of 10 mM and stored as aliquots at 4° C. Compounds may be pre-diluted in 100% DMSO at 10 mM, 3 mM 1 mM, 0.3 mM, 0.1 mM, 0.03 mM, 0.01 mM and 0.003 mM. Subsequently, compounds may be diluted in medium and added in 50 μl to the cells. The final compound concentrations tested may be 10 μM, 3 μM 1 μM, 0.3 μM, 0.1 μM, 0.03 μM, 0.01 μM and 0.003 μM and the final DMSO concentration can be 0.1%.
HT1080 STAT1-GFP cells may be seeded at a density of 10,000 cells per well in clear-bottom black 96-well Packard View-Plates™. 16-24 hours later, the cells can be treated for 2 hours with 100 ng/ml IFN-γ, washed twice in pre-warmed PBS and fixed in 200 μl of pre-warmed fixation solution (PBS, 3.7% Formaldehyde) for 10 minutes. The plates may be washed twice in 200 μl PBS and incubated, protected from light, in 100 μl of DNA-staining solution (PBS, 0.5 μg/ml Hoechst-33342) for 1 minute. The plates may then be washed once in PBS, and 200 μl PBS finally added per well. The plates, being finally covered with a black adhesive, may be either read directly or stored at 4° C. for later imaging. Where appropriate, the compounds may be added 30 min before stimulation with IFN-γ.
The plates can be read on a Cellomics® ArrayscanII automated fluorescence microscope plate reader equipped with a Mercury-Xenon white light illumination source and a Zeiss Axiovert inverted microscope, using the XF100 dichroic/emission filter cube and matching excitation filters, 10× magnification, and a 0.3 numerical aperture objective. Image acquisition and analysis can be performed using a customized protocol based on the ‘NuclearTranslocation’ Bioapplication. For each well, multiple images (fields) can be acquired until a minimum of 1000 cells are counted using two 2 channels: Channel 1 (Hoechst)=focus+nuclear mask, Channel 2 (GFP)=signal quantification in mask areas as outlined below. Nuclei may be first identified based on the Hoechst staining and a mask generated for each nucleus that then serves as a template to generate a circle (eroded inwards by 1 pixel) and a 3 pixel-wide collar-like ring (off-set outwards by 1 pixel), in which the nuclear and cytoplasmic intensity of GFP, respectively, are quantified in the corresponding channel. High content analysis yields numerous measurements per cell and the GFP intensity differential between the nuclear and the cytoplasmic masks may be chosen as a measure of sub-cellular STAT-GFP relocation. The resulting values may be averaged for all cells in the well to return a single measurement plus standard deviation. […]

T1 sequence (O60674 808-1132): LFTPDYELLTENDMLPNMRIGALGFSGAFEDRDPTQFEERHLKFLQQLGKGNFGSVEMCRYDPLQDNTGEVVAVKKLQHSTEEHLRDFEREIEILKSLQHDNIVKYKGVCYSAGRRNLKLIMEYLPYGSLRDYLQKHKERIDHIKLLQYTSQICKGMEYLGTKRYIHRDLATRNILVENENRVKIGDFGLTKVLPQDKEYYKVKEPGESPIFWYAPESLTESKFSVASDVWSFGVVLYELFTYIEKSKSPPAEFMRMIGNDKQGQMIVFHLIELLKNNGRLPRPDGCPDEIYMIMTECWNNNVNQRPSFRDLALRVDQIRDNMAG

| IC50 [1] [nM] | IC50 [2] [nM] | SMILES |
| --- | --- | --- |
| < 3 | 40 | CS(=O)(=O)c1ccc(-n2ccc3cnc(Nc4ccc(CN5CCS(=O)(=O)CC5)cc4)nc32)cc1 [Example 64, [4-(1,1-Dioxido-thiomorpholin-4-ylmethyl)-phenyl]-[7-(4-methanesulfonyl-phenyl)-7H-pyrrolo[2,3-d]pyrimidin-2-yl]-amine] |
| ≤ 3 | 45 | C[C@@H]1CN(c2ccc(Nc3ncc4ccn(-c5cc(F)c(CN6CCS(=O)(=O)CC6)c(F)c5)c4n3)cn2)C[C@H](C)N1 [Example 441, [6-(cis-3,5-Dimethyl-piperazin-1-yl)-pyridin-3-yl]-{7-[4-(1,1-dioxido-thiomorpholin-4-ylmethyl)-3,5-difluoro-phenyl]-7H-pyrrolo[2,3-d]pyrimidin-2-yl}-amine] |
| < 3 | 54 | Cc1ccc(Nc2ncc3ccn(-c4ccc(C(=O)N5CCS(=O)(=O)CC5)c(F)c4)c3n2)cc1C [Example 291, {4-[2-(3,4-Dimethyl-phenylamino)-pyrrolo[2,3-d]pyrimidin-7-yl]-2-fluoro-phenyl}-(1,1-dioxido-thiomorpholin-4-yl)-methanone] |
| 33 | 8380 | CCN1CCN(Cc2ccc(-n3ccc4cnc(Nc5ccc(OC(C)C)cc5)nc43)cc2F)CC1 [Example 106, {7-[4-(4-Ethyl-piperazin-1-ylmethyl)-3-fluoro-phenyl]-7H-pyrrolo[2,3-d]pyrimidin-2-yl}-(4-isopropoxy-phenyl)-amine] |
| 39.5 | 550 | Cc1ccc(Nc2ncc3ccn(-c4cc(F)c(CN5CCN(C6CC6)CC5)c(F)c4)c3n2)cc1C [Example 306, {7-[4-(4-Cyclopropyl-piperazin-1-yl methyl)-3,5-difluoro-phenyl]-7H-pyrrolo[2,3-d]pyrimidin-2-yl}-(3,4-dimethyl-phenyl)-amine] |
| < 3 | 130 | Cc1ccc(Nc2ncc3ccn(-c4ccc(CC(=O)N5CCOCC5)cc4)c3n2)cc1 [Example 141, 1-Morpholin-4-yl-2-[4-(2-p-tolylamino-pyrrolo[2,3-d]pyrimidin-7-yl)-phenyl]-ethanone] |
| 8.4 | 351 | CC(C)Oc1ccc(Nc2ncc3ccn(-c4ccc(C(C)N5CCOCC5)cc4)c3n2)cc1 (racemic) [Example 193, (4-Isopropoxy-phenyl)-{7-[4-(1-morpholin-4-yl-ethyl)-phenyl]-7H-pyrrolo[2,3-d]pyrimidin-2-yl}-amine] |
| 4.8 | 442 | Fc1cc(-n2ccc3cnc(Nc4ccccc4)nc32)cc(F)c1CN1CCOCC1 [Example 208, [7-(3,5-Difluoro-4-morpholin-4-ylmethyl-phenyl)-7H-pyrrolo[2,3-d]pyrimidin-2-yl]-phenyl-amine] |
| 28 | 802 | Cc1cc(Nc2ncc3ccn(-c4ccc(CN5CCOCC5)cc4)c3n2)ccc1F [Example 123, (4-Fluoro-3-methyl-phenyl)-[7-(4-morpholin-4-ylmethyl-phenyl)-7H-pyrrolo[2,3-d]pyrimidin-2-yl]-amine] |
| < 3 | 85 | COc1ccc(Nc2ncc3ccn(-c4ccc(S(C)(=O)=O)cc4)c3n2)cc1OCCCN(C)C [Example 27, [3-(3-Dimethylamino-propoxy)-4-methoxy-phenyl]-[7-(4-methanesulfonyl-phenyl)-7H-pyrrolo[2,3-d]pyrimidin-2-yl]-amine] |
| 295 | 23500 | Cc1ccc(Nc2ncc3cc(C)n(-c4ccc(CN5CCOCC5)c(F)c4)c3n2)cc1C [Example 163, (3,4-Dimethyl-phenyl)-[7-(3-fluoro-4-morpholin-4-ylmethyl-phenyl)-6-methyl-7H-pyrrolo[2,3-d]pyrimidin-2-yl]-amine] |
| 11.5 | 1490 | CN1CCN(C(=O)c2c(F)cc(-n3ccc4cnc(Nc5ccc(CN6CCOCC6)cc5)nc43)cc2F)CC1 [Example 192, {2,6-Difluoro-4-[2-(4-morpholin-4-ylmethyl-phenylamino)-pyrrolo[2,3-d]pyrimidin-7-yl]-phenyl}-(4-methyl-piperazin-1-yl)-methanone] |
| 4.3 | 815 | Cc1ccc(Nc2ncc3ccn(-c4ccc(C(=O)N5CCS(=O)(=O)CC5)cc4)c3n2)cn1 [Example 249, (1,1-Dioxido-thiomorpholin-4-yl)-{4-[2-(6-methyl-pyridin-3-ylamino)-pyrrolo[2,3-d]pyrimidin-7-yl]-phenyl}-methanone] |
| 4.8 | 257 | CC(=O)c1ccc(Nc2ncc3ccn(-c4ccc(S(C)(=O)=O)cc4)c3n2)cc1 [Example 79, 1-{4-[7-(4-Methanesulfonyl-phenyl)-7H-pyrrolo[2,3-d]pyrimidin-2-ylamino]-phenyl}-ethanone] |
| 5.1 | 643 | O=C(c1c(F)cc(-n2ccc3cnc(Nc4ccccc4)nc32)cc1F)N1CCOCC1 [Example 214, [2,6-Difluoro-4-(2-phenylamino-pyrrolo[2,3-d]pyrimidin-7-yl)-phenyl]-morpholin-4-yl-methanone] |
| 18.5 | 145 | Cc1ccc(Nc2ncc3ccn(-c4ccc(C(=O)N5CCC(N(C)C)CC5)c(F)c4)c3n2)cc1C [Example 299, (4-Dimethylamino-piperidin-1-yl)-{4-[2-(3,4-dimethyl-phenylamino)-pyrrolo[2,3-d]pyrimidin-7-yl]-2-fluoro-phenyl}-methanone] |
| < 3 | 15 | COc1cc(Nc2ncc3ccn(-c4cc(F)c(CN5CCS(=O)(=O)CC5)c(F)c4)c3n2)ccc1C [Example 308, {7-[4-(1,1-Dioxido-thiomorpholin-4-ylmethyl)-3,5-difluoro-phenyl]-7H-pyrrolo[2,3-d]pyrimidin-2-yl}-(3-methoxy-4-methyl-phenyl)-amine] |
| 8 | 2890 | CC(C)Oc1ccc(Nc2ncc3ccn(-c4ccc(C(=O)N5CCOCC5)cc4F)c3n2)cc1 [Example 522, {3-Fluoro-4-[2-(4-isopropoxy-phenylamino)-pyrrolo[2,3-d]pyrimidin-7-yl]-phenyl}-morpholin-4-yl-methanone] |
| < 3 | 25 | CN1CCC(c2ccc(Nc3ncc4ccn(-c5ccc(S(C)(=O)=O)cc5)c4n3)cc2)CC1 [Example 16, [7-(4-Methanesulfonyl-phenyl)-7H-pyrrolo[2,3-d]pyrimidin-2-yl]-[4-(1-methyl-piperidin-4-yl)-phenyl]-amine] |
| 85 | 2160 | CCN1CCN(Cc2ccc(-n3ccc4cnc(Nc5ccc(F)c(C)c5)nc43)cc2F)CC1 [Example 124, {7-[4-(4-Ethyl-piperazin-1-ylmethyl)-3-fluoro-phenyl]-7H-pyrrolo[2,3-d]pyrimidin-2-yl}-(4-fluoro-3-methyl-phenyl)-amine] |
| 4.5 | 310 | Cc1ccc(Nc2ncc3ccn(-c4ccc(CS(C)(=O)=O)cc4)c3n2)cc1 [Example 140, [7-(4-Methanesulfonylmethyl-phenyl)-7H-pyrrolo[2,3-d]pyrimidin-2-yl]-p-tolyl-amine] |

| SMILES | IC50 [1] [nM] | IC50 [2] [nM] |
| --- | --- | --- |
| CCOc1ccc(Nc2ncc3ccn(-c4ccc(CC(=O)N5CCN(CC)CC5)cc4)c3n2)cc1OCC [Example 165, 2-{4-[2-(3,4-Diethoxy-phenylamino)-pyrrolo[2,3-d]pyrimidin-7-yl]-phenyl}-1-(4-ethyl-piperazin-1-yl)-ethanone] | < 3 | 125 |
